Measurements as given in patent publication US20250223259A1, “PROTEASE INHIBITORS FOR TREATING OR PREVENTING CORONAVIRUS INFECTION” (Merck Sharp & Dohme LLC, priority 2022, published 2025).

These compounds were tested against SARS2 coronavirus 3CL protease (Severe acute respiratory syndrome coronavirus 2 (2019-nCoV) (SARS-CoV-2), UniProt P0DTD1) (assay: SARS2 Coronavirus 3CL Protease Assay (FRET)). Settings: SARS2 3CLPro FRET assay; 5 nM enzyme, 30 min pre-incubation with compound, 15 uM peptide substrate, 4 h room temperature.
Assay type: biochemical
Protocol: The enzymatic activity of SARS2 coronavirus 3CL protease was determined in a FRET (fluorescence resonance energy transfer)-based assay measuring the cleavage of a peptide substrate by recombinantly expressed and purified enzyme. Cleavage of the peptide SEQ ID NO:1 (CPC Scientific) by SARS2 3CL protease was measured in reaction buffer (50 mM Hepes pH 7.5, 0.01% Triton X-100, 0.01% BSA, 2 mM DTT). SARS2 3CL protease (5 nM final concentration) was pre-incubated with compound for 30 minutes before reaction initiation with peptide substrate (15 uM final concentration). Room temperature reactions (4 h) were quenched by addition of a high dose of inhibitor and read on an appropriate plate reader (excitation wavelength=495 nm, emission wavelength=520 nm). Data were analyzed by a standard 4 parameter fit to determine IC50 values.

Compound	IC50 [µM]
CC(C)OC(=O)N[C@H](C(=O)N1CC2(CCCCC2)C[C@H]1C(=O)N[C@@H](CCC(C)(F)F)C(=O)C(=O)NC1CC1)C1CCCCC1 [Example 50, Isopropyl ((S)-1-cyclohexyl-2-((S)-3-(((S)-1-(cyclopropylamino)-6,6-difluoro-1,2-dioxoheptan-3-yl)carbamoyl)-2-azaspiro[4.5]decan-2-yl)-2-oxoethyl)carbamate]	0.062
CNC(=O)C(=O)[C@H](CCC(C)(F)F)NC(=O)[C@@H]1CC2(CN1C(=O)[C@@H](NC(=O)OC)C(C)(C)C)CC(F)(F)C2 [Example 53, Methyl ((S)-1-((S)-7-(((S)-6,6-difluoro-1-(methylamino)-1,2-dioxoheptan-3-yl)carbamoyl)-2,2-difluoro-6-azaspiro[3.4]octan-6-yl)-3,3-dimethyl-1-oxobutan-2-yl)carbamate]	0.196
COC(=O)N[C@H](C(=O)N1C2CCC(CC2)[C@H]1C(=O)N[C@@H](CCC(C)(F)F)C(=O)C(=O)NC1CC1)C(C)(C)C [Example 59, Methyl ((S)-1-((S)-3-(((S)-1-(cyclopropylamino)-6,6-difluoro-1,2-dioxoheptan-3-yl)carbamoyl)-2-azabicyclo[2.2.2]octan-2-yl)-3,3-dimethyl-1-oxobutan-2-yl)carbamate]	0.037
COC(=O)N[C@H](C(=O)N1C[C@H]2[C@@H]([C@H]1C(=O)N[C@@H](CCC(C)(F)F)C(=O)C(=O)NC1CC1)C21CCOCC1)C(C)(C)C [Example 60, Methyl ((S)-1-((1R,2S,5S)-2-(((S)-1-(cyclopropylamino)-6,6-difluoro-1,2-dioxoheptan-3-yl)carbamoyl)tetrahydro-3-azaspiro[bicyclo[3.1.0]hexane-6,4′-pyran]-3-yl)-3,3-dimethyl-1-oxobutan-2-yl)carbamate]	0.019
COC(=O)N[C@H](C(=O)N1CC[C@@H](C(F)(F)F)C[C@H]1C(=O)N[C@@H](CCC(C)(F)F)C(=O)C(=O)NC1CC1)C(C)(C)C [Example 61, Methyl ((S)-1-((2S,4R)-2-(((S)-1-(cyclopropylamino)-6,6-difluoro-1,2-dioxoheptan-3-yl)carbamoyl)-4-(trifluoromethyl)piperidin-1-yl)-3,3-dimethyl-1-oxobutan-2-yl)carbamate]	0.016
CNC(=O)C(=O)[C@H](CCC(C)(F)F)NC(=O)[C@@H]1CC2(CCCCC2)CN1C(=O)[C@@H](NC(=O)OC)C(C)(C)C [Example 62, Methyl ((S)-1-((S)-3-(((S)-6,6-difluoro-1-(methylamino)-1,2-dioxoheptan-3-yl)carbamoyl)-2-azaspiro[4.5]decan-2-yl)-3,3-dimethyl-1-oxobutan-2-yl)carbamate]	0.0088
COC(=O)N[C@H](C(=O)N1CC[C@@H](C(F)(F)F)C[C@H]1C(=O)N[C@@H](CCC(C)(F)F)C(=O)C(=O)NC1CC1)c1ccccc1 [Example 65, Methyl ((S)-2-((2S,4R)-2-(((S)-1-(cyclopropylamino)-6,6-difluoro-1,2-dioxoheptan-3-yl)carbamoyl)-4-(trifluoromethyl)piperidin-1-yl)-2-oxo-1-phenylethyl)carbamate]	0.024
CC(F)(F)CC[C@H](NC(=O)[C@@H]1[C@@H]2[C@H](CN1C(=O)[C@@H](NC(=O)OCc1ccccc1)C1CCCCC1)C21CCCCC1)C(=O)C(=O)NC1CC1 [Example 66, Benzyl ((S)-1-cyclohexyl-2-((1R,2S,5S)-2-(((S)-1-(cyclopropylamino)-6,6-difluoro-1,2-dioxoheptan-3-yl)carbamoyl)-3-azaspiro[bicyclo[3.1.0]hexane-6,1'-cyclohexan]-3-yl)-2-oxoethyl)carbamate]	0.0099
COC(=O)N[C@H](C(=O)N1C[C@H](C(F)(F)F)C[C@H]1C(=O)N[C@@H](CCC(C)(F)F)C(=O)C(=O)NC1CC1)C(C)(C)C [Example 67, Methyl ((S)-1-((2S,4R)-2-(((S)-1-(cyclopropylamino)-6,6-difluoro-1,2-dioxoheptan-3-yl)carbamoyl)-4-(trifluoromethyl)pyrrolidin-1-yl)-3,3-dimethyl-1-oxobutan-2-yl)carbamate]	0.02
COC(=O)N[C@@H](Cc1ccccc1)C(=O)N1CC[C@@H](C(F)(F)F)C[C@H]1C(=O)N[C@@H](CCC(C)(F)F)C(=O)C(=O)NC1CC1 [Example 68, Methyl ((S)-1-((2S,4R)-2-(((S)-1-(cyclopropylamino)-6,6-difluoro-1,2-dioxoheptan-3-yl)carbamoyl)-4-(trifluoromethyl)piperidin-1-yl)-1-oxo-3-phenylpropan-2-yl)carbamate]	0.028
COC(=O)N[C@H](C(=O)N1C[C@H]2[C@@H]([C@H]1C(=O)N[C@@H](CCC(C)(F)F)C(=O)C(=O)NC1CC1)C21CCCCC1)C(C)(C)C [Example 69, Methyl ((S)-1-((1R,2S,5S)-2-(((S)-1-(cyclopropylamino)-6,6-difluoro-1,2-dioxoheptan-3-yl)carbamoyl)-3-azaspiro[bicyclo[3.1.0]hexane-6,1'-cyclohexan]-3-yl)-3,3-dimethyl-1-oxobutan-2-yl)carbamate]	0.031
COC(=O)N[C@H](C(=O)N1C[C@H](OC(F)(F)F)C[C@H]1C(=O)N[C@@H](CCC(C)(F)F)C(=O)C(=O)NC1CC1)C(C)(C)C [Example 70, Methyl ((S)-1-((2S,4R)-2-(((S)-1-(cyclopropylamino)-6,6-difluoro-1,2-dioxoheptan-3-yl)carbamoyl)-4-(trifluoromethoxy)pyrrolidin-1-yl)-3,3-dimethyl-1-oxobutan-2-yl)carbamate]	0.036
COC(=O)N[C@H](C(=O)N1C[C@H](C(F)(F)F)C[C@H]1C(=O)N[C@@H](CCC(C)(F)F)C(=O)C(=O)NC1CC1)C(C)(C)F [Example 71, Methyl ((R)-1-((2S,4R)-2-(((S)-1-(cyclopropylamino)-6,6-difluoro-1,2-dioxoheptan-3-yl)carbamoyl)-4-(trifluoromethyl)pyrrolidin-1-yl)-3-fluoro-3-methyl-1-oxobutan-2-yl)carbamate]	0.043
COC(=O)N[C@H](C(=O)N1CC2(CCCCC2)C[C@H]1C(=O)N[C@@H](CCC(C)(F)F)C(=O)C(=O)NC1CC1)C1CCOCC1 [Example 74, Methyl ((S)-2-((S)-3-(((S)-1-(cyclopropylamino)-6,6-difluoro-1,2-dioxoheptan-3-yl)carbamoyl)-2-azaspiro[4.5]decan-2-yl)-2-ox0-1-(tetrahydro-2H-pyran-4-yl)ethyl)carbamate]	0.069
CNC(=O)N[C@H](C(=O)N1CC2(CCCCC2)C[C@H]1C(=O)N[C@@H](CCC(C)(F)F)C(=O)C(=O)NC1CC1)C(C)(C)C [Example 75, (S)-N-((S)-1-(cyclopropylamino)-6,6-difluoro-1,2-dioxoheptan-3-yl)-2-((S)-3,3-dimethyl-2-(3-methylureido)butanoyl)-2-azaspiro[4.5]decane-3-carboxamide]	0.082
COC(=O)N[C@H](C(=O)N1CC(C)(C)C[C@H]1C(=O)N[C@@H](CCC(C)(F)F)C(=O)C(=O)NC1CC1)C(C)(C)C [Example 76, Methyl ((S)-1-((S)-2-(((S)-1-(cyclopropylamino)-6,6-difluoro-1,2-dioxoheptan-3-yl)carbamoyl)-4,4-dimethylpyrrolidin-1-yl)-3,3-dimethyl-1-oxobutan-2-yl)carbamate]	0.087
COC(=O)N[C@H](C(=O)N1CC2(CCCCC2)C[C@H]1C(=O)N[C@@H](CCC(C)(F)F)C(=O)C(N)=O)C(C)(C)C [Example 78, Methyl ((S)-1-((S)-3-(((S)-1-amino-6,6-difluoro-1,2-dioxoheptan-3-yl)carbamoyl)-2-azaspiro[4.5]decan-2-yl)-3,3-dimethyl-1-oxobutan-2-yl)carbamate]	0.012
COC(=O)N[C@H](C(=O)N1C[C@H]2CCCC[C@H]2C[C@H]1C(=O)N[C@@H](CCC(C)(F)F)C(=O)C(=O)NC1CC1)C(C)(C)C [Example 80, methyl ((S)-1-((3S,4aS,8aS)-3-(((S)-1-(cyclopropylamino)-6,6-difluoro-1,2-dioxoheptan-3-yl)carbamoyl)octahydroisoquinolin-2(1H)-yl)-3,3-dimethyl-1-oxobutan-2-yl)carbamate]	0.012
CNC(=O)C(=O)[C@H](CCC(C)(F)F)NC(=O)[C@@H]1[C@@H](C(F)(F)F)CCN1C(=O)[C@@H](NC(=O)OC)C(C)(C)C [Example 81, methyl ((S)-1-((2S,3S)-2-(((S)-6,6-difluoro-1-(methylamino)-1,2-dioxoheptan-3-yl)carbamoyl)-3-(trifluoromethyl)pyrrolidin-1-yl)-3,3-dimethyl-1-oxobutan-2-yl)carbamate]	0.044
CNC(=O)C(=O)[C@H](CCC(C)(F)F)NC(=O)[C@@H]1CC[C@H](C)N1C(=O)[C@@H](NC(=O)OC)C(C)(C)C [Example 85, methyl ((S)-1-((2S,5S)-2-(((S)-6,6-difluoro-1-(methylamino)-1,2-dioxoheptan-3-yl)carbamoyl)-5-methylpyrrolidin-1-yl)-3,3-dimethyl-1-oxobutan-2-yl)carbamate]	0.257
CNC(=O)C(=O)[C@H](CCC(C)(F)F)NC(=O)[C@@H]1[C@H]2CC(C)(C)O[C@H]2CN1C(=O)[C@@H](NC(=O)OC)C(C)(C)C [Example 86, methyl ((S)-1-((3aR,4S,6aR)-4-(((S)-6,6-difluoro-1-(methylamino)-1,2-dioxoheptan-3-yl)carbamoyl)-2,2-dimethylhexahydro-5H-furo[2,3-c]pyrrol-5-yl)-3,3-dimethyl-1-oxobutan-2-yl)carbamate]	0.02
CNC(=O)C(=O)[C@H](CCC(C)(F)F)NC(=O)[C@@H]1[C@H]2CCC[C@H]2CN1C(=O)[C@H](CC(F)(F)F)NC(=O)OC [Example 87, methyl ((S)-1-((1S,3aR,6aS)-1-(((S)-6,6-difluoro-1-(methylamino)-1,2-dioxoheptan-3-yl)carbamoyl)hexahydrocyclopenta[c]pyrrol-2(1H)-yl)-4,4,4-trifluoro-1-oxobutan-2-yl)carbamate]	0.007
CNC(=O)C(=O)[C@H](CCC(C)(F)F)NC(=O)[C@@H]1[C@H]2CCC[C@H]2CN1C(=O)C(NC(=O)OC)C1(C(F)(F)F)CC1 (stereo partly drawn) [Example 88, methyl (2-((1S,3aR,6aS)-1-(((S)-6,6-difluoro-1-(methylamino)-1,2-dioxoheptan-3-yl)carbamoyl)hexahydrocyclopenta[c]pyrrol-2(1H)-yl)-2-oxo-1-(1-(trifluoromethyl)cyclopropy 1)ethyl)carbamate]	0.021
